What all share (test): inhibition of tumour cell growth, NCI panel, 48 h
In assay [1] the test system is 786-0.
Assay [2] relates to A498.
In assay [3] the test system is ACHN.
Assay [4] relates to CAKI-1.
Assay [5] relates to COLO 205.
The test system of assay [6] is DU-145.
Assay [7] deals with HL-60.
For assay [8], the system named is K562.
The test system of assay [9] is KM12.
For assay [10], the system named is MCF7.
In assay [11] the test system is MDA-MB-231.
For assay [12], the system named is NCI-H23.
Assay [13] deals with OVCAR-8.
The subject of assay [14] is PC-3.
In assay [15] the test system is RXF 393.
For assay [16], the system named is SF-295.
Assay [17] concerns SK-MEL-2.
The subject of assay [18] is SK-MEL-5.
In assay [19] the test system is SN12C.
In assay [20] the test system is UO-31.

The structures appear in SMILES notation.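 The compound was tested at five concentrations on cells cultured in 96-well plates, with a 48-hour exposure period. GI50 marks 50% less growth.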 Calls of active or inactive are those of the source. Cut-off read from the data, not from the text of the source: active = GI50 up to about 1.1 µM and inactive = higher.

Experimental findings from ChEMBL document CHEMBL1201862, “PubChem BioAssay data set” (2004) are described below.

`O=[N+]([O-])c1cccc2nc3ccccc3c(NCCCN3CCOCC3)c12`: the GI50 is < 0.0106 µM (active) in [1]; < 0.0146 µM (active) in [2]; < 0.01 µM (active) in assay [3]; 0.0221 µM (active) in assay [4]; < 0.01 µM (active) in assay [5]; < 0.01 µM (active) in [6]. The GI50 in [7] was 0.0302 µM (active); in assay [8], 0.015 µM (active); in [9] it was 0.0154 µM (active); in [10], < 0.0116 µM (active); in assay [11], 0.0189 µM (active); in assay [12], < 0.0129 µM (active). Further, the GI50 in assay [13] was 0.012 µM (active); in assay [14] it was 0.0219 µM (active); in assay [15], < 0.013 µM (active); in assay [16], 0.0256 µM (active); in assay [17] it was 0.0194 µM (active); in [18], < 0.0114 µM (active). The GI50 in [19] is < 0.0132 µM (active); in assay [20] it was 0.0144 µM (active).

`Cc1ccc(-c2nnc(-c3ccc4ccccc4c3)o2)cc1`: the GI50 in [1] is 11.9 µM (inactive); in assay [2] it was > 100 µM (inactive); in [3], > 100 µM (inactive); in assay [4], 5.19 µM (inactive); in assay [5] it was > 100 µM (inactive); in assay [6], 18.2 µM (inactive). Further, the GI50 was 2.93 µM (inactive) in assay [7]; 7.26 µM (inactive) in assay [8]; > 100 µM (inactive) in assay [9]; > 100 µM (inactive) in assay [10]; 25.8 µM (inactive) in [11]; > 100 µM (inactive) in assay [12]. Besides, the GI50 was 12.4 µM (inactive) in assay [13]; 52.2 µM (inactive) in assay [14]; 5.87 µM (inactive) in [15]; 36.2 µM (inactive) in [16]; 2.92 µM (inactive) in assay [17]; > 96.2 µM (inactive) in [18]. Also, the GI50 is 14.6 µM (inactive) in [19] and 15.1 µM (inactive) in [20].

As for `C1COC2SC3=C(SC(=C4SC5=C(SCCS5)S4)S3)SC2O1` (stereo not given), the GI50 in assay [1] was 77.8 µM (inactive); in assay [2] it was > 100 µM (inactive); in assay [3] it was > 100 µM (inactive); in assay [4], > 100 µM (inactive); in assay [5], > 100 µM (inactive); in [6], > 100 µM (inactive). Moreover, the GI50 was 33.9 µM (inactive) in assay [7]; 73.1 µM (inactive) in assay [8]; 17.4 µM (inactive) in assay [9]; > 100 µM (inactive) in [10]; > 100 µM (inactive) in [11]; > 100 µM (inactive) in assay [12]. Also, the GI50 in assay [13] was > 100 µM (inactive); in assay [14] it was > 100 µM (inactive); in assay [15] it was > 100 µM (inactive); in assay [16], 36.7 µM (inactive); in [17] it was > 100 µM (inactive); in assay [18], 80.2 µM (inactive). Also, the GI50 in assay [19] and in assay [20] was > 100 µM (inactive) throughout.

Turning to `CC1OC(O[C@H]2CC[C@]3(C)[C@H]4CC=C5[C@@H]6[C@@H](C)[C@H](C)CC[C@]6(C(=O)OC6OC(CO)C(O)C(O)C6O)CC[C@@]5(C(=O)O)[C@]4(C)CC[C@H]3C2(C)C)C(O)C(O)C1O` (stereo not given in full), the GI50 in assay [1], in assay [2], in [3], in assay [4], in assay [5] and in [6] was > 100 µM (inactive) each time. For the same molecule, the GI50 in assay [7], in assay [8], in assay [9], in assay [10], in [11] and in [12] was > 100 µM (inactive) throughout. Also, the GI50 in assay [13], in assay [14], in assay [15], in assay [16], in assay [17] and in assay [18] was > 100 µM (inactive) throughout. Also, the GI50 in assay [19] and in [20] was > 100 µM (inactive) in each case.

On to `C=C1c2nc3ccccc3n2C=C(c2ccccc2)N1c1ccc(Cl)cc1`, for which the GI50 is 5.83 µM (inactive) in assay [1]; > 48.9 µM (inactive) in assay [2]; 9.18 µM (inactive) in [3]; 7.08 µM (inactive) in assay [4]; > 64.3 µM (inactive) in [5]; 59.8 µM (inactive) in [6]. The GI50 was > 100 µM (inactive) in assay [7]; 51.3 µM (inactive) in [8]; 24 µM (inactive) in assay [9]; 11.2 µM (inactive) in assay [10]; 17.4 µM (inactive) in assay [11]; 33.1 µM (inactive) in assay [12]. In addition, the GI50 in assay [13] is 25.1 µM (inactive); in assay [14], 25.7 µM (inactive); in assay [15] it was 17.5 µM (inactive); in [16], 12.6 µM (inactive); in assay [17] it was 69.5 µM (inactive); in [18] it was 15.3 µM (inactive). Besides, the results for the GI50 in assay [19] and in assay [20] were > 63.5 µM (inactive) and 53.1 µM (inactive), respectively.
